Measured values: ChEMBL document CHEMBL4507292 (2021)

Columns and labels:
[1] = biological target: Alpha-2B adrenergic receptor (Homo sapiens, UniProt P18089); assay: GPCRScan assay: inhibition of Alpha2B; parameters: radioligand conc. used [nm] 1.5 – 2.0, parental cells HEKT
[2] = biological target: Platelet-derived growth factor receptor beta (Homo sapiens) (UniProt P09619); conditions: Compound concentration 1000.0 nM
[3] = biological target: Serine/threonine-protein kinase SIK1 (Homo sapiens) (UniProt P57059); conditions: Compound concentration 1000.0 nM
[4] = biological target: Megakaryocyte-associated tyrosine-protein kinase (Homo sapiens) (UniProt P42679); conditions: Compound concentration 1000.0 nM
[5] = biological target: Beta-3 adrenergic receptor (Homo sapiens, UniProt P13945); assay: GPCRScan assay: inhibition of Beta3; parameters: radioligand conc. used [nm] 0.2 – 0.5, parental cells HEK Flp-In
[6] = biological target: 5-hydroxytryptamine receptor 1E (Homo sapiens) (UniProt P28566); conditions: Compound concentration 10.0 uM
[7] = biological target: Tyrosine-protein kinase CSK (Homo sapiens) (UniProt P41240); conditions: Compound concentration 1000.0 nM
[8] = biological target: 5-hydroxytryptamine receptor 1D (Homo sapiens) (UniProt P28221); conditions: Compound concentration 10.0 uM
[9] = biological target: Protein kinase C delta type (Homo sapiens) (UniProt Q05655); conditions: Compound concentration 1000.0 nM
[10] = biological target: Mitogen-activated protein kinase 7 (Homo sapiens) (UniProt Q13164); conditions: Compound concentration 1000.0 nM
[11] = system: Phosphatidylinositol 4,5-bisphosphate 3-kinase catalytic subunit alpha isoform (Homo sapiens), P42336 [I800L]; conditions: Compound concentration 1000.0 nM
[12] = biological target: Uncharacterized serine/threonine-protein kinase SBK3 (Homo sapiens) (UniProt P0C264); conditions: Compound concentration 1000.0 nM
[13] = biological target: Serine/threonine-protein kinase 17A (Homo sapiens) (UniProt Q9UEE5); conditions: Compound concentration 1000.0 nM
[14] = biological target: Aurora kinase C (Homo sapiens) (UniProt Q9UQB9); conditions: Compound concentration 1000.0 nM
[15] = biological target: Cyclin-dependent kinase-like 1 (Homo sapiens) (UniProt Q00532); conditions: Compound concentration 1000.0 nM
[16] = biological target: Angiopoietin-1 receptor (Homo sapiens) (UniProt Q02763); conditions: Compound concentration 1000.0 nM
[17] = biological target: SRSF protein kinase 3 (Homo sapiens) (UniProt Q9UPE1); conditions: Compound concentration 1000.0 nM
[18] = system: Mast/stem cell growth factor receptor Kit (Homo sapiens), P10721 [D816V]; conditions: Compound concentration 1000.0 nM
[19] = biological target: Dual specificity protein kinase CLK3 (Homo sapiens) (UniProt P49761); conditions: Compound concentration 1000.0 nM
[20] = biological target: Sodium-dependent noradrenaline transporter (Homo sapiens, UniProt P23975); conditions: Compound concentration 10.0 uM
[21] = biological target: Serine/threonine-protein kinase MARK2 (Homo sapiens) (UniProt Q7KZI7); conditions: Compound concentration 1000.0 nM
[22] = biological target: Serine/threonine-protein kinase 32C (Homo sapiens) (UniProt Q86UX6); conditions: Compound concentration 1000.0 nM
[23] = biological target: T1, 5-hydroxytryptamine receptor 1A (Homo sapiens) (UniProt P08908); conditions: Compound concentration 10.0 uM
T1 sequence (whole entry): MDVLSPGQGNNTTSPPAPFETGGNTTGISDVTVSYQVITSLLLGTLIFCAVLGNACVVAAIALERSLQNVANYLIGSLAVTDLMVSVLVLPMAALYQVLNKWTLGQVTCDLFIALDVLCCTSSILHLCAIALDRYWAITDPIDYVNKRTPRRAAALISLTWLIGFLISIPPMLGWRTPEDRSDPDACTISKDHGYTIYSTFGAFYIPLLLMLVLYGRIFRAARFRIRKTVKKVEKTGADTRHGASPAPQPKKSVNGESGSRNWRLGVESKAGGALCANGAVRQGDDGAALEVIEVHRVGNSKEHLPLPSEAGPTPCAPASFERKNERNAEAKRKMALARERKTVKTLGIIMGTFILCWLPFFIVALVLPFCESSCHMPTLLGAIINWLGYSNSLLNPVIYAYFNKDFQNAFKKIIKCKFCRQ

[24] = system: Phosphatidylinositol 4,5-bisphosphate 3-kinase catalytic subunit alpha isoform (Homo sapiens), P42336 [C420R]; conditions: Compound concentration 1000.0 nM
[25] = biological target: Serine/threonine-protein kinase tousled-like 1 (Homo sapiens) (UniProt Q9UKI8); conditions: Compound concentration 1000.0 nM
[26] = biological target: Leucine-rich repeat serine/threonine-protein kinase 2 (Homo sapiens) (UniProt Q5S007); conditions: Compound concentration 1000.0 nM
[27] = biological target: Interleukin-1 receptor-associated kinase 1 (Homo sapiens) (UniProt P51617); conditions: Compound concentration 1000.0 nM
[28] = biological target: Phosphorylase b kinase regulatory subunit alpha, liver isoform (Homo sapiens) (UniProt P46019); conditions: Compound concentration 1000.0 nM
[29] = biological target: Macrophage colony-stimulating factor 1 receptor (Homo sapiens) (UniProt P07333); conditions: Compound concentration 1000.0 nM
[30] = biological target: Tyrosine-protein kinase Lck (Homo sapiens) (UniProt P06239); conditions: Compound concentration 1000.0 nM
[31] = biological target: Serine/threonine-protein kinase TNNI3K (Homo sapiens) (UniProt Q59H18); conditions: Compound concentration 1000.0 nM
[32] = system: Tyrosine-protein kinase ABL1 (Homo sapiens), P00519 [F317I]; conditions: Compound concentration 1000.0 nM
[33] = biological target: NUAK family SNF1-like kinase 2 (Homo sapiens) (UniProt Q9H093); conditions: Compound concentration 1000.0 nM
[34] = system: Epidermal growth factor receptor (Homo sapiens), P00533 [L858R,T790M]; conditions: Compound concentration 1000.0 nM
[35] = biological target: Hepatocyte growth factor receptor (Homo sapiens) (UniProt P08581); conditions: Compound concentration 1000.0 nM
[36] = system: Serine/threonine-protein kinase B-raf (Homo sapiens), P15056 [V600E]; conditions: Compound concentration 1000.0 nM
[37] = biological target: Myosin light chain kinase family member 4 (Homo sapiens) (UniProt Q86YV6); conditions: Compound concentration 1000.0 nM
[38] = biological target: Tyrosine-protein kinase Fes/Fps (Homo sapiens) (UniProt P07332); conditions: Compound concentration 1000.0 nM
[39] = biological target: Non-receptor tyrosine-protein kinase TYK2 (Homo sapiens) (UniProt P29597); conditions: Compound concentration 1000.0 nM
[40] = biological target: Serine/threonine-protein kinase TAO1 (Homo sapiens) (UniProt Q7L7X3); conditions: Compound concentration 1000.0 nM
Serine/threonine-protein kinase TAO1 (Homo sapiens), sequence (Q7L7X3 whole entry): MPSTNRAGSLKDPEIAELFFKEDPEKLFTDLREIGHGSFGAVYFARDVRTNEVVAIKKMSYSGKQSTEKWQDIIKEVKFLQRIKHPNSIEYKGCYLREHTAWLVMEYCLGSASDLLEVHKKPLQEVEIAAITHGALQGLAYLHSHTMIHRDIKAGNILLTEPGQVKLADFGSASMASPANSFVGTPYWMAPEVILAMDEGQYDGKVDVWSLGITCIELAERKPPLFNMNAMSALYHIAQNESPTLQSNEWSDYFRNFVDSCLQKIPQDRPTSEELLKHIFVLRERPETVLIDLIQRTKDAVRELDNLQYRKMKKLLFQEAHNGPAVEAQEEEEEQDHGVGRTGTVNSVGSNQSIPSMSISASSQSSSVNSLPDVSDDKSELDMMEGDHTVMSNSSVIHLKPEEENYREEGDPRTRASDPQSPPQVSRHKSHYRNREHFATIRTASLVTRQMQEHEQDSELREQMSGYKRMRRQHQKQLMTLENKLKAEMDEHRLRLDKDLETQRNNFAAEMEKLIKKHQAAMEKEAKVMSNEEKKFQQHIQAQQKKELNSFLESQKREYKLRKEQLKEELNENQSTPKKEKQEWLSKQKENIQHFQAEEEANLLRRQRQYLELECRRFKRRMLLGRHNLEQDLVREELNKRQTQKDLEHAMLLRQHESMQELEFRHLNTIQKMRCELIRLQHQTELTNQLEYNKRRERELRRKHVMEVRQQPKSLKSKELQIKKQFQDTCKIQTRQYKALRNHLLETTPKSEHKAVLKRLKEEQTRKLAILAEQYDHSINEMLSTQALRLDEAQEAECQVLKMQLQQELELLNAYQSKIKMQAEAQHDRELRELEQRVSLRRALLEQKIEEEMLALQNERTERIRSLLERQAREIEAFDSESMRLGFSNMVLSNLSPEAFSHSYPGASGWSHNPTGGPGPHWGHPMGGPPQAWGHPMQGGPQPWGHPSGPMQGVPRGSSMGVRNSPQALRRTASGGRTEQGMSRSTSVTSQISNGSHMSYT

Serine/threonine-protein kinase B-raf (Homo sapiens), P15056 [V600E], sequence (P15056 whole entry V600E): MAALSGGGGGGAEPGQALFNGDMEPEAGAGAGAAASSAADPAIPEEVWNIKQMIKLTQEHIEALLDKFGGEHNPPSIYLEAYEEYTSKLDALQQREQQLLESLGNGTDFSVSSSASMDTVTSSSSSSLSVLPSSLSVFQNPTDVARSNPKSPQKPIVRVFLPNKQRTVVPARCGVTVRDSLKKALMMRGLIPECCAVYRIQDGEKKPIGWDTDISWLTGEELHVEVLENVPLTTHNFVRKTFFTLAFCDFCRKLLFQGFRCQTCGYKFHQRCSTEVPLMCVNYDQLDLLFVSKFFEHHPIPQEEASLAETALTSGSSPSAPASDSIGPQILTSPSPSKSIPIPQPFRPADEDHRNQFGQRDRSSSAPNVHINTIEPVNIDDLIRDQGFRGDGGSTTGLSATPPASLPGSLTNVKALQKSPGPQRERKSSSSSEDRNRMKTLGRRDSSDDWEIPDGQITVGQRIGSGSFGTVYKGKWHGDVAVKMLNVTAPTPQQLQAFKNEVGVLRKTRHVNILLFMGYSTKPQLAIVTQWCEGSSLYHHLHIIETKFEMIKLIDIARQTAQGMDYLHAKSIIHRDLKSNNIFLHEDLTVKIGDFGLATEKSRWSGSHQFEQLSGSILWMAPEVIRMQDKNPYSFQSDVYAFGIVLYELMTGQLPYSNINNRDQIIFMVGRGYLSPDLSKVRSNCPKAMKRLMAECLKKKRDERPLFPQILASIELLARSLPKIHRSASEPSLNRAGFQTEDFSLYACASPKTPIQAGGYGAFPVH
Tyrosine-protein kinase Fes/Fps (Homo sapiens), sequence (P07332 whole entry): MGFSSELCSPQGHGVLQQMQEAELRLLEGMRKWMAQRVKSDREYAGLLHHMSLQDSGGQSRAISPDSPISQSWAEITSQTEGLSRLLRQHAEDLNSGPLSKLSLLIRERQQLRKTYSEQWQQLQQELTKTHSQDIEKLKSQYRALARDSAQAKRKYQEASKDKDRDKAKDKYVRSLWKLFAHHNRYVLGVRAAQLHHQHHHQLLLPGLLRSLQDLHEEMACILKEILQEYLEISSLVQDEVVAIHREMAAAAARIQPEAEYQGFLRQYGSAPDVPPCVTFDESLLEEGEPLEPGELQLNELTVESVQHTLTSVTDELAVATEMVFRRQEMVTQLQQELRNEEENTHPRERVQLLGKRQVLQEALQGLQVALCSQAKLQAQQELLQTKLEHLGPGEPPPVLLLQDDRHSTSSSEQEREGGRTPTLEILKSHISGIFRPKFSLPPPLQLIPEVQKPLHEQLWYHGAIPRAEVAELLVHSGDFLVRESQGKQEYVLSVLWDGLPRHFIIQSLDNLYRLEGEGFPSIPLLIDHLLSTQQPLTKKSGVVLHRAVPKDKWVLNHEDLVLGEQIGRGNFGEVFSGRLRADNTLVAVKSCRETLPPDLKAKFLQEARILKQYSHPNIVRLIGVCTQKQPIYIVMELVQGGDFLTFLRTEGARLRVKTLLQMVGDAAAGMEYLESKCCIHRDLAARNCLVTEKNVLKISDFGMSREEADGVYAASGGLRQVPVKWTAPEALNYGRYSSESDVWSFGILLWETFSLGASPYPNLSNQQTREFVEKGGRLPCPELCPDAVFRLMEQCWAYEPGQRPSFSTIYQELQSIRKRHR
Sodium-dependent noradrenaline transporter, sequence (P23975 whole entry): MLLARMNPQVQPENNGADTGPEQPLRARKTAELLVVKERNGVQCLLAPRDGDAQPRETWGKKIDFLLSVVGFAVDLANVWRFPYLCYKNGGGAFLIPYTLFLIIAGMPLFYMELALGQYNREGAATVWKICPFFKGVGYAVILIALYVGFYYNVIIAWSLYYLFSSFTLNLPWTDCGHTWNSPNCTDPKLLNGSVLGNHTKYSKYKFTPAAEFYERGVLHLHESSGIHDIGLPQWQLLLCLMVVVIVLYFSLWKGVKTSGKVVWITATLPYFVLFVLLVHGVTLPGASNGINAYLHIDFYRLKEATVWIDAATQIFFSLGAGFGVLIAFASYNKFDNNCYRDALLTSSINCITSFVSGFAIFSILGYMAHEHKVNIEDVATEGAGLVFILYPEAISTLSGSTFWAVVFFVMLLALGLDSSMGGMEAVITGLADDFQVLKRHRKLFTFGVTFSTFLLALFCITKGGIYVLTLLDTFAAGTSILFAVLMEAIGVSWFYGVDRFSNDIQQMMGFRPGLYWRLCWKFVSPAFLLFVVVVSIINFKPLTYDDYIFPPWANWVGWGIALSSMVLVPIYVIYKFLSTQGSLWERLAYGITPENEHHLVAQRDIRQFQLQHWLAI
Cyclin-dependent kinase-like 1 (Homo sapiens), sequence (Q00532 whole entry): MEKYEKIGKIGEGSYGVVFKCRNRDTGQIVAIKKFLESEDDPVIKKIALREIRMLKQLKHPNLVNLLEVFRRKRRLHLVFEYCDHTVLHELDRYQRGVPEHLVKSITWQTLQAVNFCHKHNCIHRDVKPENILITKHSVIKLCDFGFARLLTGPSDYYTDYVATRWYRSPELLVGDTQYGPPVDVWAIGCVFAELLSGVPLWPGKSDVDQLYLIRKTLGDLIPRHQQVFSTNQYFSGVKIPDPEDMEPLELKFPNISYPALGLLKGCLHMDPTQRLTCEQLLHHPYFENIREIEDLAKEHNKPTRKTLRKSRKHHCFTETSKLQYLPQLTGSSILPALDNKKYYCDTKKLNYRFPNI
Phosphatidylinositol 4,5-bisphosphate 3-kinase catalytic subunit alpha isoform (Homo sapiens), P42336 [I800L], sequence (P42336 whole entry I800L, canonical isoform): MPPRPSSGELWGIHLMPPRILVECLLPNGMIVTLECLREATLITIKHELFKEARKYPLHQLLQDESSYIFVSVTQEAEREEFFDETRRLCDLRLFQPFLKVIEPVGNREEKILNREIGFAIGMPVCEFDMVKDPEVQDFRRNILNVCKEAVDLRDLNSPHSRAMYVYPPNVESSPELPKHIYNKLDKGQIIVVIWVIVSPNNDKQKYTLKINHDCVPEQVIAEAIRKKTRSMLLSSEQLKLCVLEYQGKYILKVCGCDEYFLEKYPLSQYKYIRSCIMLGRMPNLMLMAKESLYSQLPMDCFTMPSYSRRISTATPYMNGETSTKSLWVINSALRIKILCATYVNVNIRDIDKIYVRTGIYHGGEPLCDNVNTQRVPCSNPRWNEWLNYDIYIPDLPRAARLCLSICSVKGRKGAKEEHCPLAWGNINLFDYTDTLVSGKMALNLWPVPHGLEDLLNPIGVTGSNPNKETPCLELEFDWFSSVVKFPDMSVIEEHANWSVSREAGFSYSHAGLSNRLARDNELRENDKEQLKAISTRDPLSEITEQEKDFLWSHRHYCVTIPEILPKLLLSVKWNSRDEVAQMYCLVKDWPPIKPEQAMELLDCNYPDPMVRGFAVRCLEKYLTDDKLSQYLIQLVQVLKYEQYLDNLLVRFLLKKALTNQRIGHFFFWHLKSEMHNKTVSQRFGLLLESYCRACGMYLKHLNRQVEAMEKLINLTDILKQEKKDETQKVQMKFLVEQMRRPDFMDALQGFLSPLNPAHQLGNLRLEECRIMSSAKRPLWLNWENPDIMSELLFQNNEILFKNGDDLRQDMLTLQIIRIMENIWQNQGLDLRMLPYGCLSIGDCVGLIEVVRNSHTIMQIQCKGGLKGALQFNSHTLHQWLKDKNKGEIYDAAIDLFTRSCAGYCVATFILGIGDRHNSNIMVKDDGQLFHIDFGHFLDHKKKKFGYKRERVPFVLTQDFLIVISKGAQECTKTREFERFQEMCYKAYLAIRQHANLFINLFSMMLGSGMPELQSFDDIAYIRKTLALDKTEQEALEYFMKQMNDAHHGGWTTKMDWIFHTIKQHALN
5-hydroxytryptamine receptor 1E (Homo sapiens), sequence (P28566 whole entry): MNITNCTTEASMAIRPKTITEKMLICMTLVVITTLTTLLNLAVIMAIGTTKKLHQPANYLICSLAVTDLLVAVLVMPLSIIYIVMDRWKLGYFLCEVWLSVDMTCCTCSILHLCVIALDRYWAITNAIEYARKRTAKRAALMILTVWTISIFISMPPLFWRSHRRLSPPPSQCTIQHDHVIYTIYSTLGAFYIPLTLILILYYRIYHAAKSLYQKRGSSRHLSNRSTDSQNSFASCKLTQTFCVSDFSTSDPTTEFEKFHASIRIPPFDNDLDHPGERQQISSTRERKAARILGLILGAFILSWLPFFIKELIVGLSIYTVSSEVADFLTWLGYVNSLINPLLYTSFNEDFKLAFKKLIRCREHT

SMILES	Ki [1] [nM]	residual activity [2] [%]	residual activity [3] [%]	residual activity [4] [%]	Ki [5] [µM]	inhibition [6] [%]	residual activity [7] [%]	inhibition [8] [%]	residual activity [9] [%]	residual activity [10] [%]	residual activity [11] [%]	residual activity [12] [%]	residual activity [13] [%]	residual activity [14] [%]	residual activity [15] [%]	residual activity [16] [%]	residual activity [17] [%]	residual activity [18] [%]	residual activity [19] [%]	inhibition [20] [%]	also measured
Cc1c(C(=O)O)cc(-c2ccc(C3CCNCC3)cc2)c2ccc(-c3ccc(C(F)(F)F)cc3)cc12 [PPTN-NC]	1840	100	94	100	3.26	3.48	100	30.1	100	100	100	80	99	92	82	100	100	100	100	11.2	residual activity [21]: 100%; residual activity [22]: 100%; inhibition [23]: 1.01%; residual activity [24]: 100%; residual activity [25]: 100%; residual activity [26]: 100%; residual activity [27]: 100%; residual activity [28]: 100%; residual activity [29]: 100%; residual activity [30]: 100%; residual activity [31]: 100%; residual activity [32]: 100%; residual activity [33]: 100%; residual activity [34]: 100%; residual activity [35]: 100%; residual activity [36]: 100%; residual activity [37]: 100%; residual activity [38]: 100%; residual activity [39]: 100%; residual activity [40]: 100%
O=C(O)c1cc(-c2ccc(C3CCNCC3)cc2)c2ccc(-c3ccc(C(F)(F)F)cc3)cc2c1 [PPTN]	2560	100	100	100	2.92	13.4	100	33.6	100	100	93	75	100	95	93	100	82	100	100	23.6	residual activity [21]: 100%; residual activity [22]: 100%; inhibition [23]: 11.2%; residual activity [24]: 95%; residual activity [25]: 100%; residual activity [26]: 100%; residual activity [27]: 100%; residual activity [28]: 100%; residual activity [29]: 100%; residual activity [30]: 100%; residual activity [31]: 100%; residual activity [32]: 100%; residual activity [33]: 100%; residual activity [34]: 100%; residual activity [35]: 100%; residual activity [36]: 100%; residual activity [37]: 94%; residual activity [38]: 100%; residual activity [39]: 100%; residual activity [40]: 100%
